Measured values reported in ChEMBL document CHEMBL1201862, “PubChem BioAssay data set” (2004).
Activity calls are given as the source filed them.

What was measured:
[1] = fluorescence interference artefacts, compound only, dose response, artefact control for cardiac thin filament activator project, biochemical, no RTF in test wells (AID 504697)
[2] = target: T1, Long-chain-fatty-acid--AMP ligase FadD28 (Mycobacterium tuberculosis, UniProt P9WQ59); test: Fluorescence polarization aasay to screen for inhibitors that compete for the binding of FadD28 to a bisubstrate Measured in Biochemical System Using Plate Reader - 2147-01_Inhibitor_Dose_CherryPick_Activity.; type: functional, Mycobacterium tuberculosis H37Rv
T1 sequence (P9WQ59 whole entry): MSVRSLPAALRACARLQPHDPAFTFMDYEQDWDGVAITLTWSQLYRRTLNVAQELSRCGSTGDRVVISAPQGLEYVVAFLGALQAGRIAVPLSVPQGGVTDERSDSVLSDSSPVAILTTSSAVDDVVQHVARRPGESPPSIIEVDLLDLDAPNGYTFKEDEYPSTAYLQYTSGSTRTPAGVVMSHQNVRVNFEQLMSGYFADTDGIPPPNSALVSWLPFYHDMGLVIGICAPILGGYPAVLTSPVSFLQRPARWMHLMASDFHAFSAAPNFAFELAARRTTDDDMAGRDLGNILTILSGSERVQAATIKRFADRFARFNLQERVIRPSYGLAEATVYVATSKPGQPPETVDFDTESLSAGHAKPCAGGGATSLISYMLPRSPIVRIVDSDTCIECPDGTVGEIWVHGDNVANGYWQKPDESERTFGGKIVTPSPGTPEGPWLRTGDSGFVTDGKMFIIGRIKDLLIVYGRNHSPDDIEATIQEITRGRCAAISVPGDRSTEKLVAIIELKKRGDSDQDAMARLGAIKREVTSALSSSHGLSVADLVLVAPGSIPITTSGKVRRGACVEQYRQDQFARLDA

[3] = target: E3 ubiquitin-protein ligase XIAP (Homo sapiens, UniProt P98170); test: Counter Screen using XIAP-Bir3 for Chemical Antagonists of Bir1/2 domains of IAP-family anti-apoptotic proteins. [Related pubchem assays (depositor defined):AID1018, AID1449, AID1514, AID1638, AID1749, AID1750, AID488957, AID488963]
Troponin, cardiac muscle = Troponin, cardiac muscle (Homo sapiens, UniProt P19429+P45379+P63316); test: Fluorescence-based biochemical high throughput dose response assay for activators of the calcium sensitivity of cardiac Regulated Thin Filaments (RTF). [Related pubchem assays (depositor defined):AID493008, AID493018, AID504382, AID504383]; type: protein-complex assay
Cannabinoid receptor 1 [4] = target: T2, Cannabinoid receptor 1 (Homo sapiens, UniProt P21554); test: SAR analysis of agonists of the Cannabinoid Receptor 1 using an Image-Based Assay - Set 4. [Related pubchem assays (depositor defined):AID2013, AID2026]; type: functional
Cannabinoid receptor 1 [5] = target: T2, Cannabinoid receptor 1; test: SAR analysis of antagonists of the Cannabinoid Receptor 1 using an Image-Based Assay - Set 4. [Related pubchem assays (depositor defined):AID2013, AID2026]; type: functional
Cannabinoid receptor 2 [6] = target: T3, Cannabinoid receptor 2 (Homo sapiens, UniProt P34972); test: SAR analysis of antagonists of the Cannabinoid Receptor 2 using an Image-Based Assay - Set 3. [Related pubchem assays (depositor defined):AID2013, AID2026]; type: functional
[7] = target: T4, G-protein coupled receptor 35 (Homo sapiens, UniProt Q9HC97); test: SAR analysis of Agonists of the GPR35 Receptor using an Image-Based Assay - Set 4. [Related pubchem assays (depositor defined):AID2013, AID2026]; type: functional
Cannabinoid receptor 2 [8] = target: T3, Cannabinoid receptor 2; test: SAR analysis of agonists of the Cannabinoid Receptor 2 using an Image-Based Assay - Set 3. [Related pubchem assays (depositor defined):AID2013, AID2026]; type: functional
[9] = target: T4, G-protein coupled receptor 35; test: SAR analysis of Antagonists of the GPR35 Receptor using an Image-Based Assay - Set 6. [Related pubchem assays (depositor defined):AID2013, AID2026]; type: functional
[10] = target: G-protein coupled receptor 55 (Homo sapiens, UniProt Q9Y2T6); test: SAR Analysis of Selective Antagonists of GPR55 using an Image-Based Assay - Set 4. [Related pubchem assays (depositor defined):AID2013, AID2026]; type: functional;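 also: antagonism of response to 5 µM lysophosphatidylinositol agonist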
[11] = target: T5, Dual specificity protein phosphatase 6 (Rattus norvegicus, UniProt Q64346); type: functional;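 also: confirmatory in vitro dose-response testing of MKP-3 inhibition; recombinant His-tagged MKP-3 made in E. coli BL21 with OMFP substrate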
T5 sequence (Q64346 whole entry): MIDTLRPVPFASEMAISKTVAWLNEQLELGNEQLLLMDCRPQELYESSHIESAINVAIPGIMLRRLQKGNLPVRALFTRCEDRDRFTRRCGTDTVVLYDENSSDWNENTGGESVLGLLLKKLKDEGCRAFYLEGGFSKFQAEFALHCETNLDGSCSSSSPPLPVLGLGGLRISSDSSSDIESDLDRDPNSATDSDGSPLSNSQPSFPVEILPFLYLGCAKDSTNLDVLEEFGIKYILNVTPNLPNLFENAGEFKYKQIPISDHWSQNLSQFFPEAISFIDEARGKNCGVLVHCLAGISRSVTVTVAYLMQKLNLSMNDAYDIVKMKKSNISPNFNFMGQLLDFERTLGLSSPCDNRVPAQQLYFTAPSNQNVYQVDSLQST

[12] = target: T6, Tyrosine-protein phosphatase non-receptor type 22 (Homo sapiens, UniProt Q9Y2R2); test: SAR LYP1 Fluorescent Assay using OMFP substrate for In Vitro dose response studies - Set 3. [Related pubchem assays (depositor defined):AID1779, AID1784, AID2140, AID2686]; type: functional
T6 sequence (Q9Y2R2 whole entry): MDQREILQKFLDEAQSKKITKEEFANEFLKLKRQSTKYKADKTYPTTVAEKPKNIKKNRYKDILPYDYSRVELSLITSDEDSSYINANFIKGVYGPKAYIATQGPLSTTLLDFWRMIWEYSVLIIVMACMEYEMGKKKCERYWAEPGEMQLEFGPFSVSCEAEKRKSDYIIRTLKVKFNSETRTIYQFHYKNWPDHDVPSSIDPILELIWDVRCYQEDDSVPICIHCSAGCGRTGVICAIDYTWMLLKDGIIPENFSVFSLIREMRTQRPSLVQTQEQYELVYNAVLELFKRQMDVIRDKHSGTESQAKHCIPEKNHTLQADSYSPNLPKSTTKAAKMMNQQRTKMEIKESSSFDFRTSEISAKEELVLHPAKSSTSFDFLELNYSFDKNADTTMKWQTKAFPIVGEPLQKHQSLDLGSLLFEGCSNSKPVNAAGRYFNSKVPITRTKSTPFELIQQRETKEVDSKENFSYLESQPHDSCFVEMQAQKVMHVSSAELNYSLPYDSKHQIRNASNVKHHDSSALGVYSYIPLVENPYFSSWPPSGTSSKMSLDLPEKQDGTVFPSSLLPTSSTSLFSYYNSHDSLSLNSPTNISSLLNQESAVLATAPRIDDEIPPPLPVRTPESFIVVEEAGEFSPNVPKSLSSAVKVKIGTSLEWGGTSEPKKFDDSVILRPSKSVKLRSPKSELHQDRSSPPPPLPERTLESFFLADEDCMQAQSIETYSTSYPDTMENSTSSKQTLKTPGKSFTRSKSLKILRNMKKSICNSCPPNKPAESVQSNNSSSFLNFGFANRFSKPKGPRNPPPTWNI

[13] = target: T6, Tyrosine-protein phosphatase non-receptor type 22; test: LYP (PTPN22) phosphatase inhibitor potency, SAR follow-up, biochemical, pCAP fluorogenic substrate, fluorescence, set 3 (AID 449727); type: functional
[14] = target: T7, Tyrosine-protein phosphatase non-receptor type 7 (Homo sapiens, UniProt P35236); test: HePTP (PTPN7) phosphatase inhibitor potency, SAR follow-up, biochemical, set 2 (AID 449736); type: functional
T7 sequence (P35236 whole entry): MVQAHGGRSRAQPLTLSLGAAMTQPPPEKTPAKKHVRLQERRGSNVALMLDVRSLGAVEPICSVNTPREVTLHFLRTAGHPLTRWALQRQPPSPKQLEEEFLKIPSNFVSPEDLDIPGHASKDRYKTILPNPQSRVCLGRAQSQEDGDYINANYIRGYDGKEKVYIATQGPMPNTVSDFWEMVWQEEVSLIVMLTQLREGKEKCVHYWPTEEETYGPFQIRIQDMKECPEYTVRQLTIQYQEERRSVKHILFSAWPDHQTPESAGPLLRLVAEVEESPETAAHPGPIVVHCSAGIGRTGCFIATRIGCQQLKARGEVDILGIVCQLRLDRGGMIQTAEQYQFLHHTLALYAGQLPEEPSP

[15] = target: Tyrosine-protein phosphatase non-receptor type 12 (Homo sapiens, UniProt Q05209); test: SAR Selectivity Analysis of small molecule inhibitors of PEST using pCAP in a fluorescence assay. [Related pubchem assays (depositor defined):AID1779, AID1784, AID2135]; type: functional
[16] = target: T7, Tyrosine-protein phosphatase non-receptor type 7; test: redox-dependent HePTP inhibition, mechanism study, biochemical, fluorescence (AID 2068); type: functional
[17] = target: Dual specificity protein phosphatase 3 (Homo sapiens, UniProt P51452); test: SAR VHR1 Fluorescent Assay for In Vitro dose response studies Set 2. [Related pubchem assays (depositor defined):AID1654, AID1661, AID1878]; type: functional
Sequence of Dual specificity protein phosphatase 3 (P51452 whole entry): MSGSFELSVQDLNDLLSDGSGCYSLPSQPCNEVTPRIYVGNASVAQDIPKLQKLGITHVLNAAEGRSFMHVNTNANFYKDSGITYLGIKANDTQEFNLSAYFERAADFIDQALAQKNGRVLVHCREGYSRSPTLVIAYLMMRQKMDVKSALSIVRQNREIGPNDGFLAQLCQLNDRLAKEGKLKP

T2 sequence (P21554 whole entry): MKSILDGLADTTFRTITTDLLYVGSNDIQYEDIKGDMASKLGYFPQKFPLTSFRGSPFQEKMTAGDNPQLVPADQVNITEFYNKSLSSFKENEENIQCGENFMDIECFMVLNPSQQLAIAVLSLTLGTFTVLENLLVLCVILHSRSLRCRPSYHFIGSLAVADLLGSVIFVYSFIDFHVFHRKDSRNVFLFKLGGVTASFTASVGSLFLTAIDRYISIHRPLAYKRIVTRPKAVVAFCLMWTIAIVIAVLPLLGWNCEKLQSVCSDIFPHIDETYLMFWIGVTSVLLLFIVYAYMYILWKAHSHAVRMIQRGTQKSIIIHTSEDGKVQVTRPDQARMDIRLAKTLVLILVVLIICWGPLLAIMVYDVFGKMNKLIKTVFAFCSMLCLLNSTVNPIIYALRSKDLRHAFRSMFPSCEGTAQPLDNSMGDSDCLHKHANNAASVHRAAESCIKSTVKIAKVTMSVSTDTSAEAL
T4 sequence (Q9HC97 whole entry): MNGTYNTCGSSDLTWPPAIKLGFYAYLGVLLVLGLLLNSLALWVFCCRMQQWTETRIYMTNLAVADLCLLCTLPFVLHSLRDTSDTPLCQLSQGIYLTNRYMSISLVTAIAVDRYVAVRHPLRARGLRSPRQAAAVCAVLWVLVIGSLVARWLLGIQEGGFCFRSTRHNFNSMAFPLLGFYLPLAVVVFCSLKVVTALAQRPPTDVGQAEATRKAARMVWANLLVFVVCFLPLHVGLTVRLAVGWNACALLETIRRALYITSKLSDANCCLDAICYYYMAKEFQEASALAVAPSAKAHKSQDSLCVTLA
T3 sequence (P34972 whole entry): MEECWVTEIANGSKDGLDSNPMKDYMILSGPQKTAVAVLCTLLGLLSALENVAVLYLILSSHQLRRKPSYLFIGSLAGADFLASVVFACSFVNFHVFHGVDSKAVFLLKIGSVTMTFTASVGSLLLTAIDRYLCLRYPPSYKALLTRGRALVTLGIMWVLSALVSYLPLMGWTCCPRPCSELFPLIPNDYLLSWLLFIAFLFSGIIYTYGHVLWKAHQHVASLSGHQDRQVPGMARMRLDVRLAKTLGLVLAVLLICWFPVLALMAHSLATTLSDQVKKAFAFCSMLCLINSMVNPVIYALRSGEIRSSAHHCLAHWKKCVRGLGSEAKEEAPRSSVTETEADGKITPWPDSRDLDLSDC
Sequence of G-protein coupled receptor 55 (Q9Y2T6 whole entry): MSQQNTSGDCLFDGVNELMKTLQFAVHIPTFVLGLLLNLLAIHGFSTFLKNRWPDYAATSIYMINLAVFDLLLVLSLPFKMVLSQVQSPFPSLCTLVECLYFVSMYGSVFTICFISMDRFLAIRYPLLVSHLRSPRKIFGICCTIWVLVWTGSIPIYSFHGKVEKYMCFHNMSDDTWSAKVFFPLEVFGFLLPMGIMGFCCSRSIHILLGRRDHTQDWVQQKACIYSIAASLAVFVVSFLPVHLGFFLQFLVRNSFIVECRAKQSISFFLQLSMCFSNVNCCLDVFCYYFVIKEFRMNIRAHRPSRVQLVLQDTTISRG
Sequence of E3 ubiquitin-protein ligase XIAP (P98170 whole entry): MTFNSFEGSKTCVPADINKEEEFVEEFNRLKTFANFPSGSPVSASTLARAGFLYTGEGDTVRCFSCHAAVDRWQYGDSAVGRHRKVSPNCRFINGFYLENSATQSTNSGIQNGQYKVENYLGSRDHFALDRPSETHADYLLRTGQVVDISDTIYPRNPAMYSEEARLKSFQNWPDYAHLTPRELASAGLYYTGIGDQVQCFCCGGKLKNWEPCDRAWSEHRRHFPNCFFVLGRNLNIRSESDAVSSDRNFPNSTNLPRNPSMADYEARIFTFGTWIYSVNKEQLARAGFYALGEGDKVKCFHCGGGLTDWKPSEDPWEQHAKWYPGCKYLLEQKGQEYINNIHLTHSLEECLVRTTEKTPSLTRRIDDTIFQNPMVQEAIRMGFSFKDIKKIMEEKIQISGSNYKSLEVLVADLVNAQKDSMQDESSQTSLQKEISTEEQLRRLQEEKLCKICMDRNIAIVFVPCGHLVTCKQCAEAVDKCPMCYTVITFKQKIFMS
Sequence of Tyrosine-protein phosphatase non-receptor type 12 (Q05209 whole entry): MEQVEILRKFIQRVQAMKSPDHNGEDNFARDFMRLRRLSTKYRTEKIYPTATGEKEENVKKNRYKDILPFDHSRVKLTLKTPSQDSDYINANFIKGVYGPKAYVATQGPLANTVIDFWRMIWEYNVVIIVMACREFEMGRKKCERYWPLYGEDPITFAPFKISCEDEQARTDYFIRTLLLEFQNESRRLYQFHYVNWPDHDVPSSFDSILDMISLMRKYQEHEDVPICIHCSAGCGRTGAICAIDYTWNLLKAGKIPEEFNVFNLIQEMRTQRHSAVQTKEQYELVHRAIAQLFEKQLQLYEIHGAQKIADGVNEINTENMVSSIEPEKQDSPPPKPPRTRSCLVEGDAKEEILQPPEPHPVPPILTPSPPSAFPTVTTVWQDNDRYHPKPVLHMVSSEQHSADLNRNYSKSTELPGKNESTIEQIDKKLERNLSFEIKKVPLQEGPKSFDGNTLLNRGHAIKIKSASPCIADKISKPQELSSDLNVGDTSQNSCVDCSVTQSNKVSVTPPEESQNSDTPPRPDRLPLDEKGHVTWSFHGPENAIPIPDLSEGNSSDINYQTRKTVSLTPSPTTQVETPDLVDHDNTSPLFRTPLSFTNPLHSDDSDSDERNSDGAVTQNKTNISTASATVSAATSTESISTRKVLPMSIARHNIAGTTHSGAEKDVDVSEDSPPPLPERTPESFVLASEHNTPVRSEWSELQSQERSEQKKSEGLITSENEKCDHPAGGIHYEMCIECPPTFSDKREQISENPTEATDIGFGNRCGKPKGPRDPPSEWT

Question: With CCN1C(=O)C(=CNc2ccc(N3CCOCC3)cc2)C(=O)N(CC)C1=S as the molecule, how does the EC50 [1] read?
Answer: > 7.94 µM (active)

Question: What about the AC50 [2] of the same molecule?
Answer: > 100 µM (inactive)

Question: And the IC50 [3]?
Answer: > 20 µM (inactive)

Question: What about the EC50 (Troponin, cardiac muscle) of the same molecule?
Answer: 5.15 µM (active)

Question: With COc1ccc(-c2nnc(C)c3nn(-c4ccc(C)cc4)cc23)cc1 as the molecule, how does the EC50 (Cannabinoid receptor 1 [4]) read?
Answer: > 32 µM (inactive)

Question: What about the IC50 (Cannabinoid receptor 1 [5]) of the same molecule?
Answer: 3.56 µM (active)

Question: And the IC50 (Cannabinoid receptor 2 [6])?
Answer: > 15.6 µM (inactive)

Question: What about the EC50 [7] of the same molecule?
Answer: > 32 µM (inactive)

Question: And the EC50 (Cannabinoid receptor 2 [8])?
Answer: > 32 µM (inactive)

Question: What about the IC50 [9] of the same molecule?
Answer: > 32 µM (inactive)

Question: And the IC50 [10]?
Answer: > 32 µM (inactive)

Question: Which IC50 [11] does the source give for CCOc1cc(/C=C2\SC(=O)N(CC(=O)Nc3ccc(C)cc3)C2=O)cc(Cl)c1OCC(=O)OC here?
Answer: > 100 µM (inactive)

Question: What about the IC50 [12] of the same molecule?
Answer: > 100 µM (inactive)

Question: What about the IC50 [13] of the same molecule?
Answer: > 100 µM (inactive)

Question: What about the IC50 [14] of the same molecule?
Answer: 9.66 µM (active)

Question: What about the IC50 [15] of the same molecule?
Answer: > 100 µM (inactive)

Question: And the IC50 [16]?
Answer: 17.9 µM (active)

Question: What about the IC50 [17] of the same molecule?
Answer: > 100 µM (inactive)
